For one assay, the target named is Cytochrome P450 2C19 (Homo sapiens, UniProt P33261). Put plainly: Cytochrome panel assay with activity outcomes. Panel member name: p450-cyp2c19 Compounds with AC50 equal or less than 10 uM are considered active. The assay is classed as functional. Particulars: read-out: AC50.
The target in a further assay is Cytochrome P450 2C9 (Homo sapiens, UniProt P11712).
Another assay deals with INS1. Put plainly: INS-1E survival protection against cytokine death – cell-based, luminescence, retest, dose response (AID 449756).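 Note: cell death triggered by IL-1 beta plus TNF-alpha plus IFN-gamma mixture; protective hits raise ATP signal compared with cytokine alone wells.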 Particulars: Rattus norvegicus. In kind it is functional.
Assay [1] deals with T1, Heat shock factor protein 1 (Mus musculus, UniProt P38532).
T1 sequence (P38532 whole entry): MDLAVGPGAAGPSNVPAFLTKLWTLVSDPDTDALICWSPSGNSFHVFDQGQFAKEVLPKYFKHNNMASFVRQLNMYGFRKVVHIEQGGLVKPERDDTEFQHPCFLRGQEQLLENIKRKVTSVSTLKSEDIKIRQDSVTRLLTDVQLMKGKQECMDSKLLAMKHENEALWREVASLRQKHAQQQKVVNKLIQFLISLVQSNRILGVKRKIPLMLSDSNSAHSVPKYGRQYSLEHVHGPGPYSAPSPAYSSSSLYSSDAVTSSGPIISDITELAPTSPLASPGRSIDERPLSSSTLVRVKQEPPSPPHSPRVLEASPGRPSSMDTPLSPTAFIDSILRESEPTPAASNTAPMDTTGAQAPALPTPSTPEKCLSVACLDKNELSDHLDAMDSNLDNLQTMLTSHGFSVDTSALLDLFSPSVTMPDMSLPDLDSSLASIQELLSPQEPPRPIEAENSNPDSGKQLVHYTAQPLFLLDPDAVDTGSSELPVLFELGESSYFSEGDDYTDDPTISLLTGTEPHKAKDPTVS
Put plainly: decrease of HSF1-responsive luciferase luminescence – cell-based, NIH3T3, dose retest, confirmation (AID 2382).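 Note: NIH3T3 fibroblasts with HSF1-driven luciferase reporter stressed by proteasome inhibitor MG132; luminescence from HSF1-driven luciferase expression after 8 hours of MG132 stress.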 The assay is classed as functional.

Assay [2] deals with T2, Corticotropin-releasing factor receptor 2/Corticotropin-releasing factor-binding protein (Homo sapiens, UniProt P24387+Q13324).
T2 sequence (Q13324 whole entry): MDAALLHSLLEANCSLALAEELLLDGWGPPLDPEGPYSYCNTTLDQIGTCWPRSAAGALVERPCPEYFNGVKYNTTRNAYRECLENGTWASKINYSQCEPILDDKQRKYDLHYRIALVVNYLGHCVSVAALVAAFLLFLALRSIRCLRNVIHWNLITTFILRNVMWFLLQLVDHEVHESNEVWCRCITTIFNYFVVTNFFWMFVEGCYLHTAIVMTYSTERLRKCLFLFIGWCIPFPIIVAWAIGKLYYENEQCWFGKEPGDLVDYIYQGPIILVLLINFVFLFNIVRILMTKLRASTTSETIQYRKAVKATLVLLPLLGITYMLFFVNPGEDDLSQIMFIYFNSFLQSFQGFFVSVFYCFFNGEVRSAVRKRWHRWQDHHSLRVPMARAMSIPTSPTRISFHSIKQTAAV
T2 sequence (P24387 whole entry): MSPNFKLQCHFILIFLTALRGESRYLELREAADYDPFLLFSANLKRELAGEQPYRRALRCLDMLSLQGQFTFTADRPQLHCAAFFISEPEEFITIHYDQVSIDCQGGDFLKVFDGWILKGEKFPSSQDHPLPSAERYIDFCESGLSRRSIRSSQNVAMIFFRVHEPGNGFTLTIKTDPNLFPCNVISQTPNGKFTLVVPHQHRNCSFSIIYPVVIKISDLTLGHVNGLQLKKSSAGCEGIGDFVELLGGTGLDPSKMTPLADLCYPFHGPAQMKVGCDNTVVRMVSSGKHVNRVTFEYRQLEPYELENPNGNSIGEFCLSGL
Put plainly: Dose Response confirmation of uHTS hits for small molecule antagonists of the CRF-binding protein and CRF-R2 receptor complex. The assay is classed as functional. The following applies: read-out: IC50_Mean.

The target of assay [3] is T2, Corticotropin-releasing factor receptor 2/Corticotropin-releasing factor-binding protein. Put plainly: activators of CRF receptor 2 with binding protein – uHTS hits, confirmation (AID 602473). The assay is classed as functional. The following applies: read-out: EC50_Mean.
Assay [4] is described as follows: Trypanosoma cruzi growth suppression in host cells – NIH3T3 host cells, beta-gal luminescence, confirmation (AID 2044).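 Note: intracellular parasites grown in NIH/3T3 mouse fibroblasts as host cells; luminescent beta-galactosidase reporter signal from transgenic T. cruzi replicating inside host cells; inhibitors lower the luminescence signal.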 In kind it is functional, cell-based.
Assay [5] in a line: NIH3T3 cell viability loss – ATP luminescence, mouse fibroblasts, counter-screen, dose response (AID 2010).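 Note: cells exposed to compound for about 90 hours before reading.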 In kind it is functional, cell-based.
A short description of assay [6]: Luminescence Cell-Based Dose Confirmation HTS to Identify Activators of 5'UTR Stem-Loop Driven Alpha-Synuclein mRNA Translation in H4 Neuroglioblastoma Cells. [Related pubchem assays: 1829 (Project Summary), 1814 (Primary HTS)]. In kind it is functional.
A short description of assay [7]: Luminescence Cell-Based Dose Response HTS to Identify Activators of Luciferase Translation or Activity in H4 […] Cells. [Related pubchem assays: 1829 (Project Summary), 1814 (Primary HTS)]. In kind it is functional.
The test system of another assay is H4. Put plainly: Luminescence Cell-Based Dose Response HTS to Identify Activators of 5'UTR Stem-Loop Driven Prion Protein mRNA Translation in H4 Neuroglioblastoma Cells. [Related pubchem assays: 1829 (Project Summary), 1814 (Primary HTS)]. The assay is classed as functional. Particulars: Homo sapiens.
Another assay deals with T3, Cytochrome P450 1A2 (Homo sapiens, UniProt P05177).
T3 sequence (P05177 whole entry): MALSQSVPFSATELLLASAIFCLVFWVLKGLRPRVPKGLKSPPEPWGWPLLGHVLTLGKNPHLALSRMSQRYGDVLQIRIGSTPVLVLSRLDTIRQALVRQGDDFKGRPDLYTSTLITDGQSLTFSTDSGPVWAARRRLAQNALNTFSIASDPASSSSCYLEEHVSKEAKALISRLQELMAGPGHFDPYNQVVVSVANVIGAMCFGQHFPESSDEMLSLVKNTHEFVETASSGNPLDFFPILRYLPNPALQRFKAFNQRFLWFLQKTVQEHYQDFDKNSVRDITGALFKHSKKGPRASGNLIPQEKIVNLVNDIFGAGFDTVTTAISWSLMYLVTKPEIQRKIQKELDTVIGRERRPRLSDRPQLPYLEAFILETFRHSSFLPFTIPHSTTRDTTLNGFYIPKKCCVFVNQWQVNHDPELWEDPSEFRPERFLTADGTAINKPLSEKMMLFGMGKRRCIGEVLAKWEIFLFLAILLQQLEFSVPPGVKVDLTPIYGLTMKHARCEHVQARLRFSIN

The source made the active and inactive calls.

Sequence of Cytochrome P450 2C19 (P33261 whole entry): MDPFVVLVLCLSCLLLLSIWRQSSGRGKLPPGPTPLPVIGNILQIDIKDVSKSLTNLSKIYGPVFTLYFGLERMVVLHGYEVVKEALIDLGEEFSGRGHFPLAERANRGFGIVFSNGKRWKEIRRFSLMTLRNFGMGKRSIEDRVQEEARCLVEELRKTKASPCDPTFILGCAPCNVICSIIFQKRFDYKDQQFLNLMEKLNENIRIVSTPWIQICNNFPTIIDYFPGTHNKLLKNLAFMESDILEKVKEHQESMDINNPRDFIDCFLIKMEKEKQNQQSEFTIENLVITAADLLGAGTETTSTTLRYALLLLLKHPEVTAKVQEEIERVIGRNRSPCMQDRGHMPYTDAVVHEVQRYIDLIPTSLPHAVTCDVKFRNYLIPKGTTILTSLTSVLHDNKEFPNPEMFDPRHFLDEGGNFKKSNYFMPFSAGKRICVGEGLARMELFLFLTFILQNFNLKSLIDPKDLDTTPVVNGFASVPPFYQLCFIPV
Sequence of Cytochrome P450 2C9 (P11712 whole entry): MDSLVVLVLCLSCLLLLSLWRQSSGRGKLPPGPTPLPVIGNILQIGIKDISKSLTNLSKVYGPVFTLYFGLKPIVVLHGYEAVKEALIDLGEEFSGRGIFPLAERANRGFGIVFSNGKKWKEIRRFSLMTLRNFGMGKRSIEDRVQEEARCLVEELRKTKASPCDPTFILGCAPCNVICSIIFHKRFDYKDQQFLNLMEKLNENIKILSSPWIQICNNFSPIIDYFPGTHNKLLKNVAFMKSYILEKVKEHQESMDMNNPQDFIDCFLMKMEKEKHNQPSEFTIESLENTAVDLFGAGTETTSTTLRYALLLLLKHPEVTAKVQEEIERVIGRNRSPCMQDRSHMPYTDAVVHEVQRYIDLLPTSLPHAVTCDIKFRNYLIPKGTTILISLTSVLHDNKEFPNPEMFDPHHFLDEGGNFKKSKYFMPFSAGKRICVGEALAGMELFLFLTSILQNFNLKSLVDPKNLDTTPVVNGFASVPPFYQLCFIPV

`O=C(Nc1ccccc1)N1CCOCC1`: the AC50 on Cytochrome P450 2C19 was 31.6 µM (inconclusive); on Cytochrome P450 2C9, 0.562 µM (inconclusive).

Consider `Cc1ccc(N(CC(=O)Nc2cc(C)cc(C)c2)S(=O)(=O)c2c(C)noc2C)cc1`, for which the concentration at half-maximal activity (AC50) in the assay on INS1 was 8.43 µM (active).

For the compound `CCCNC(=O)OC[C@@H]1O[C@H](CCO/N=C(\C)CCC(=O)OC[C@@H]2O[C@H](c3ccccc3)C=C[C@@H]2Oc2ccc(OC)cc2)C=C[C@@H]1Oc1ccc(OC)cc1`, the AC50 was 0.0794 µM (inconclusive) on Cytochrome P450 2C19 and 3.98 µM (inconclusive) on Cytochrome P450 2C9.

Take `COC(=O)c1nc(Cl)c(Cl)c(N)c1Cl`: the EC50 in assay [1] is on record as > 195 µM (not active).

On to `Cc1ccc(NC(S)=NCc2ccccn2)cc1`, for which the IC50 in assay [2] was > 47.1 µM (inactive). In [3], the EC50 was > 53 µM (inactive).

On to `COc1cccc(C2CC(c3ccccc3)n3ncnc3N2)c1` (configuration not stated), for which the EC50 in assay [1] is > 195 µM (not active).

As to `CN(Cc1ccco1)c1ncnc2ccc(-c3ccc4c(c3)OCO4)cc12`, the concentration at half-maximal activity (AC50) on Cytochrome P450 2C9 was 1.26 µM (inconclusive).

Regarding `CC(O)CNCCCOc1ccc(Cl)cc1C(C)(C)C` (configuration not stated), the EC50 in [1] was 142 µM (active).

Consider `FC(F)(F)c1ccccc1N=C(S)N1CCN(Cc2ccc3c(c2)OCO3)CC1`, for which the concentration at half-maximal activity (AC50) in the assay on INS1 was 7.02 µM (active).

For the compound `NS(=O)(=O)c1ccc(NC(S)=Nc2ccc(F)c(F)c2)cc1`, the IC50 in assay [2] is > 47.1 µM (inactive). Further, the EC50 in [3] is > 53 µM (inactive).

On to `O=C(Nc1ccc(N2CCN(Cc3ccccc3Cl)CC2)cc1)c1cccnc1`, for which, in the assay with INS1, the AC50 is 4.75 µM (active).

For `COc1ccc(-n2cccc2/C=C2/NC(=O)N(c3cccc(Cl)c3)C2=O)cc1`, the EC50 in assay [1] was 30.2 µM (active).

Take `COc1ccccc1CNc1ccnc(-c2ccoc2)n1`: on Cytochrome P450 2C9, the AC50 is 1.26 µM (inconclusive).

For `COc1ccc(C(=O)COC(=O)CCN2C(=O)C3C4CC(C(Br)C4Br)C3C2=O)cc1` (configuration not stated), in assay [1], the EC50 is reported as > 195 µM (not active).

In the case of `Cc1ccc(S(=O)(=O)NC(C)(C)CSc2nncn2N)cc1`, the EC50 in assay [1] is listed as > 195 µM (not active).

Take `CC(C)n1cc(CN2CCCC(CNS(=O)(=O)c3cccc4cccnc34)C2)cn1` (configuration not stated): the EC50 in [1] was > 195 µM (not active); in [4] it was 0.798 µM (active); in [5] it was > 60 µM (not active).

Turning to `CC(=O)Nc1cc[n+](C(C)C(=O)c2ccccc2)cc1` (configuration not stated), the EC50 in assay [1] is > 195 µM (not active).

With `CC(C)(C)c1ccc(SCCc2cccnc2)cc1`, the IC50 in assay [2] was > 47.1 µM (inactive). Further, the EC50 in assay [3] was > 53 µM (inactive).

For `Cc1ccc(S(=O)(=O)N(CC(=O)NCc2ccco2)Cc2ccccc2F)cc1`, the IC50 in assay [2] is > 47.1 µM (inactive). Further, the EC50 in assay [3] is > 53 µM (inactive).

As for `O=C(CCl)NN1C(=O)NC(c2ccccc2)(c2ccccc2)C1=O`, the EC50 in [6] is 13.1 µM (active); in [7] it was > 120 µM (not active); in the assay with H4, > 120 µM (not active).

`CC(C)C[C@H](NC(=O)N1CCCCCC1)C(=O)O`: the EC50 in assay [1] is on record as > 195 µM (not active).

`CC1CCCN(C(=O)CSc2nnc(-c3ccc(O)cc3)o2)C1` (configuration not stated): the EC50 in [1] is on record as > 195 µM (not active).

As to `CCOC(=O)NC(O)C(=O)c1cccs1` (configuration not stated), in [2], the IC50 was > 47.1 µM (inactive). In addition, the EC50 in [3] was > 53 µM (inactive).

Take `C=CC(=O)NC(C)(C)Cc1ccccc1`: the AC50 on Cytochrome P450 2C9 is 10 µM (inconclusive).

Regarding `Cc1nn(C)c(Oc2ccc(Cl)cc2)c1C(=O)O`, the IC50 in assay [2] is > 47.1 µM (inactive). In addition, in assay [3], the EC50 was > 53 µM (inactive).

Regarding `COc1ccc(-[n+]2cc(-c3ccccc3)n3c2CCCCC3)cc1`, the EC50 in assay [4] was 0.453 µM (active); in [5], > 30 µM (not active). Further, the AC50 in the assay on INS1 is 1.66 µM (active).

As for `COc1ccc(N2C(=O)CCC(C(=O)Nc3ccccn3)C2c2ccc(OC)c(OC)c2)cc1` (configuration not stated), the AC50 at Cytochrome P450 2C9 was 3.16 µM (inconclusive).

For `CCc1nnc(NC(=O)CSc2nc(C3CCCCC3)nc3ccccc23)s1`, the AC50 was 5.01 µM (inconclusive) on Cytochrome P450 2C19 and 3.55 µM (inconclusive) on Cytochrome P450 2C9.

For `COc1cccc(Cn2c(=O)c(-c3cn(C)c4ccccc34)nc3cnc(OC)nc32)c1`, the AC50 at Cytochrome P450 1A2 is 15.8 µM (inconclusive); on Cytochrome P450 2C9, 12.6 µM (inconclusive).

As for `N=C(N)Nc1nc(CCN2C(=O)c3ccccc3C2=O)cs1`, the AC50 at Cytochrome P450 1A2 is 12.6 µM (inconclusive); on Cytochrome P450 2C9, 17.8 µM (inconclusive).

For the compound `CCCc1cc2c(cc1NC(=O)c1ccccc1C)OCO2`, the AC50 at Cytochrome P450 2C9 is 0.0562 µM (inconclusive).

Regarding `COc1c(Cl)cc(Cl)cc1CNc1ccc(S(N)(=O)=O)cc1`, in [2], the IC50 was > 47.1 µM (inactive). Further, the EC50 in assay [3] was > 53 µM (inactive).

Regarding `Cc1ccc(-n2c(=O)[nH]cc(C(=O)N3CCc4ccccc43)c2=O)cc1`, the half-maximal activity concentration (AC50) at Cytochrome P450 2C9 is 1 µM (inconclusive).

For `O=C(Nc1cccc(Cl)c1)N1CCOCC1`, in [1], the EC50 was > 195 µM (not active).

Regarding `COc1ccc(S(=O)(=O)N2CCCCCC2)cc1C(=O)NCCc1ccccc1`, the IC50 in assay [2] is > 47.1 µM (inactive). Also, the EC50 in [3] was > 53 µM (inactive).

For the compound `O=C(C1CCN(C2CCN(CC3CC=CCC3)CC2)CC1)N1CCOCC1` (configuration not stated), in assay [2], the IC50 was > 47.1 µM (inactive). Moreover, the EC50 in assay [3] was > 53 µM (inactive).

`COc1ccc(C(=O)N/N=C/c2ccccc2OC(=O)c2ccccc2)cc1`: in the assay on INS1, the AC50 is 2.35 µM (active).

Turning to `Cc1[nH]n(CCC#N)c(=O)c1CC(=O)N1CCN(c2ccccc2)CC1`, the figures for the EC50 in assay [1] and in assay [3] were > 195 µM (not active) and > 53 µM (inactive), respectively. For the same compound, in [2], the IC50 was > 47.1 µM (inactive).

Consider `CN(C)c1ccc(/C=N/NC(=O)c2cccc(N3CCCC3=O)c2)cc1`, for which the EC50 in assay [1] was > 195 µM (not active).

As for `Cc1ccc2c(c1)N(C)/C(=C/c1cccc[n+]1CCO)S2`, the AC50 with INS1 was 4.37 µM (active).

As a reminder, the AC50 is the midpoint of the concentration-response curve, whichever way the signal moves.

Values taken from ChEMBL document CHEMBL1201862, “PubChem BioAssay data set” (2004).
